Assay: Toxicity (LC50, lethal concentration 50%)
Type: in vivo
Excerpt: In addition, […], toxicity is further reduced by […], which classifies it in the field of gases considered to be “practically non-toxic” (toxicity classification 5, according to the Hodge and Sterner toxicity scale).

Structure (SMILES): N#CC(F)(C(F)(F)F)C(F)(F)F [Heptafluoroisobutyronitrile, 2,3,3,3-tetrafluoro-2-trifluoromethyl propanenitrile]
- specific toxicity for humans (humans): no specific toxicity
- LC50 (lethal concentration, 50%) (pure heptafluoroisobutyronitrile): greater than 15,000 ppm
